Data set [1] deals with Meth A fibrosarcoma cells. Briefly: Anticancer activity in mice with transplanted Meth A fibrosarcoma cells (tumor weight). In kind it is in vivo, Balb/c mouse. Particulars: for Proliferation-inhihition rate (%): 1/3 of the whole volume at 7th, 9th and 11th days, tumor weight at 21st day, female Balb/c mouse. How it is done: A compound represented by Formula (8) (50 to 500 μg/kg) that solved in ethanol or 5-FU (10 mg/kg) was administered to an 8-week old female Balb/c mouse (Japan SLC) having approx. 1×10^5 of Meth A fibrosarcoma cells (Kitasato Institute) intraperitoneally transplanted therein by ⅓ of the whole volume at 7th, 9th and 11th days intravenously (but 5-FU administered intraperitoneally) to measure tumor weight at 21st day. Using a control mouse to which normal saline solution was administered in lieu of a test compound, anticancer activity on each compound was expressed in number according to a formula of proliferation-inhibition rate (%)=(1−(sample/blank))×100.

In data set [2] the test system is human Burkitt's lymphoma cell line (Raji, ATCC No. CRL-86). Briefly: Proliferation inhibition of human Burkitt's lymphoma cell line Raji (Cell Counting Kit-8). It counts as cell-based. Particulars: Raji cells, 72 hours culture, Cell Counting Kit-8, absorbance 450 nm; for IC50: Homo sapiens, read-out: IC50 (compound concentration with a proliferation-inhibition rate of 50%), Raji. The procedure:
(§1) Human BuRkitt's lymphoma cell line (DG-75, ATCC No. CRL-2675) or human Burkitt's lymphoma cell line (Raji, ATCC No. CRL-86) was suspended in an RPMI-1640 medium (SIGMA) (hereinafter called culture solution) containing 10% calf serum (Moregate) and 10% fetal bovine serum (Hyclone) so as to set the cell number at 1×10^5/mL. After 50 μL of the cell suspension was added to a 96-well microplate, 49 μL of the above culture solution was added thereto to set the whole volume at 99 μL. Compounds represented by Formulae (6) to (11) that solved in DMSO, 5-FU (Wako) or doxorubicin (Wako) (all 0.0001 to 10 μg/mL) were each added to one well by 1 μL, and cultured with a CO2 concentration of 5% at 37° C. for 72 hours. After culturing, 10 μL of Wako cell Counting Kit-8 (Wako) was added to each well and subjected to color reaction in a CO2 incubator for 3 hours. Proliferation-inhibition rate was calculated from absorbance values measured with a microplate reader at 450 nm (reference wavelength: 620 nm) using the following expression to determine a compound concentration in a culture solution with a proliferation-inhibition rate of 50% as IC50 value.

Data set [3] has as its system Human BuRkitt's lymphoma cell line (DG-75, ATCC No. CRL-2675). In words: Proliferation inhibition of human Burkitt's lymphoma cell line DG-75 (Cell Counting Kit-8). As to conditions: DG-75 cells, 72 hours culture, Cell Counting Kit-8, absorbance 450 nm; for IC50: Homo sapiens, read-out: IC50 (compound concentration with a proliferation-inhibition rate of 50%), DG-75. In kind it is cell-based. The procedure: as §1

Data set [4] is described as follows: Solubility in solvents (physicochemical description). Particulars: qualitative, organic solvents and water.

Converted amounts (≈) assume the structure as drawn.

Turning to `O=c1[nH]cc(F)c(=O)[nH]1` [Compound 5-FU, 5-FU, reference compound], in data set [1] (10000 μg/kg (10 mg/kg), intraperitoneally), the “Proliferation-inhihition rate (%)” value is 60.2%. In data set [2], the “IC50 (compound concentration with a proliferation-inhibition rate of 50%), Raji” value is 3.0 µg/mL. In addition, the “IC50 (compound concentration with a proliferation-inhibition rate of 50%), DG-75” value in data set [3] was determined as 0.9 µg/mL.

`C=C1/C=C(\C)C(C)CC(O)CC(=O)C(O)C(O)C(C)CC(C)OC(=O)C(C)C(O)CCCCC2OC2CC(C)C1` (stereo not drawn) [Compound 6]: in data set [4], the Solubility result was “soluble in alcohol, chloroform, ethyl acetate and acetone, insoluble in hexane and water”. Moreover, in data set [3], the IC50 turned out to be 0.02 µg/mL (≈ 0.0353 µM).

With `C=C1/C=C(\C)C(C)CC(O)CC(=O)C(O)C(O)C(C)CC(C)OC(=O)/C(C)=C/CCCCC2OC2CC(C)C1` (stereo not drawn) [Compound 7], in data set [4], the Solubility result is “soluble in alcohol, chloroform, ethyl acetate and acetone, insoluble in hexane and water”. The IC50 in data set [3] is 0.4 µg/mL (≈ 0.729 µM).

Consider `C=C1CC2C/C=C/C(O)C(C)/C(C)=C\C(=O)OC(CC(C)C(C)O)C(C)C/C=C/C(C)(O)C(O)(C1)O2` (stereo not drawn) [Compound 8], for which the “Proliferation-inhihition rate (%)” value is reported as 5.3% in data set [1] (50 μg/kg, intravenously); 62.2% in data set [1] (200 μg/kg, intravenously); 54.3% in data set [1] (500 μg/kg, intravenously). In addition, the “Proliferation-inhibition rate (anticancer activity) compared with 5-FU” value in data set [1] (Meth A fibrosarcoma mouse model, Formula (8) administered with a lower concentration than 5-FU) is given as “almost the same proliferation-inhibition rate (anticancer activity) as 5-FU”. Besides, the IC50 in data set [2] turned out to be 0.003 µg/mL (≈ 0.00592 µM); in data set [3], 0.002 µg/mL (≈ 0.00395 µM). In addition, the Solubility result in data set [4] was “soluble in chloroform, acetone, ethyl acetate, ethanol and methanol, insoluble in water and hexane”.

In the case of `C/C1=C/C(=O)C(C)(O)/C=C/CC(C)C(CC(C)C(C)O)OC(=O)/C=C(/C)C(C)C(O)/C=C/CC(O)C1` (stereo not drawn) [Compound 9], the Solubility entry in data set [4] was “soluble in chloroform, acetone, ethyl acetate and ethanol, insoluble in water and hexane”. Further, in data set [3], the IC50 amounted to 0.9 µg/mL (≈ 1.78 µM).

Consider `C=C(C(O)CC)C(C)C(O)C1CCC/C(C)=C/C2OC(CC2C)C2OC(CC/C=C/CCC(C)C(=O)O1)CC2O` (stereo not drawn) [Compound 10], for which the IC50 in data set [2] came out at 0.01 µg/mL (≈ 0.0178 µM); in data set [3], 0.006 µg/mL (≈ 0.0107 µM). Further, in data set [4], the Solubility result was “soluble in chloroform, acetone, ethyl acetate and ethanol, insoluble in water and hexane”.

Regarding `C/C=C/C/C=C/C(C)CC(O)C1CC2OC2/C=C/C(O)C(O)/C=C/CC(C)CC(=O)O1` (stereo not drawn) [Compound 11], the IC50 in data set [2] turned out to be 0.05 µg/mL (≈ 0.115 µM); in data set [3] it was 0.08 µg/mL (≈ 0.184 µM). Also, the Solubility entry in data set [4] is “soluble in chloroform, acetone, ethyl acetate and ethanol, insoluble in water and hexane”.

Turning to `COc1cccc2c1C(=O)c1c(O)c3c(c(O)c1C2=O)C[C@@](O)(C(=O)CO)C[C@@H]3O[C@H]1C[C@H](N)[C@H](O)[C@H](C)O1` [Doxorubicin, doxorubicin, reference compound], the IC50 in data set [2] stood at 0.02 µg/mL (≈ 0.0368 µM); in data set [3], 0.04 µg/mL (≈ 0.0736 µM).

The record behind these values is patent publication US8071793B2, “Macrolide compound” (National University Corporation Hokkaido University, priority 2006, dated 2011).
